Like-named read-outs stand apart in the source and are kept apart here.
Tests used:
Assay type in all cases: cell-based
HIV-1Ba-L = experiment: microbe, parasite or virus in culture; settings: Human immunodeficiency virus 1, 168 h, PBNC (PHA-PBMC), p24 production, day 7, read-out: MEAN IC50 (μM) ± SDs
Experimental: (§1) The sensitivities of HIV-1LAI, HIV-1Ba-L, HIV-2EHO and the primary HIV-1 isolates against various drugs were determined as previously described with minor modifications (Shiraska et al., Proc. Natl. Acad. Sci. USA, 92, 2398-2402 (1995)).

HIV-1LAI = experiment: microbe, parasite or virus in culture; settings: day 7, read-out: MEAN IC50 (μM) ± SDs
Experimental: as §1

HIV-2EHO = experiment: Drug sensitivity of HIV-2EHO in MT-2 cells, MTT assay; settings: Human immunodeficiency virus 2, MT2, 168 h, HT-2 (footnote: MT-2 cells), day 7, read-out: MEAN IC50 (μM) ± SDs
Experimental: as §1

[1] = system: HIV-1ERS104pre (wild-type clinical strain); experiment: PI sensitivity of wild-type clinical isolate in PHA-PBMC, p24; settings: Human immunodeficiency virus 1, read-out: IC50 μM
HIV-1 clinical isolate 1 = experiment: PI sensitivity of PI-resistant clinical isolate 1 in PHA-PBMC, p24; settings: Human immunodeficiency virus 1; isolate 1: L10I, K14R, L33I, N36I, H46I, F53L, K55R, I62V, L63P, A71V, G73S, V82A, L90M, I93L; PHA-PBMC, p24
HIV-1 clinical isolate 2 = experiment: PI sensitivity of PI-resistant clinical isolate 2 in PHA-PBMC, p24; settings: Human immunodeficiency virus 1; isolate 2: L10I, I15V, K20R, N36I, H46L, I54V, K55R, I62V, L63P, K70D, V82A, L89N; PHA-PBMC, p24
HIV-1 clinical isolate 3 = experiment: PI sensitivity of PI-resistant clinical isolate 3 in PHA-PBMC, p24; settings: Human immunodeficiency virus 1; isolate 3: L10I, I15V, E35D, N37E, K45R, I54V, L63P, A71V, V82I, L90N, I93L, C95F; PHA-PBMC, p24
HIV-1 clinical isolate 4 = experiment: PI sensitivity of PI-resistant clinical isolate 4 in PHA-PBMC, p24; settings: Human immunodeficiency virus 1; isolate 4: L10I, V11I, T12E, I15V, L19I, B41K, H46L, L63P, A71T, V82A, L90M; PHA-PBMC, p24
HIV-1 clinical isolate 5 = experiment: PI sensitivity of PI-resistant clinical isolate 5 in PHA-PBMC, p24; settings: Human immunodeficiency virus 1; isolate 5: L10I, K43T, N46L, I54L, L63P, A71T, V82A, L90N, D92K; PHA-PBMC, p24
HIV-1 clinical isolate 6 = experiment: PI sensitivity of PI-resistant clinical isolate 6 in PHA-PBMC, p24; settings: Human immunodeficiency virus 1; isolate 6: L10I, K14R, B41K, H46L, I54V, L63P, A71V, V82A, L90M, I93L; PHA-PBMC, p24
HIV-1 clinical isolate 7 = experiment: PI sensitivity of PI-resistant clinical isolate 7 in PHA-PBMC, p24; settings: Human immunodeficiency virus 1; isolate 7: L10I, L24I, L33F, E35D, H36I, H37S, N46L, I54V, R57K, I62V, L63P, A71V, G73S, V82A; PHA-PBMC, p24
HIV-1 clinical isolate 8 = experiment: PI sensitivity of PI-resistant clinical isolate 8 in PHA-PBMC, p24; settings: Human immunodeficiency virus 1; isolate 8: L10R, H37D, N46I, I62V, L63P, A71V, G73S, V77I, V82T, L90M, I93L; PHA-PBMC, p24
[2] = system: highly cross-resistant HIV-1 strains derived from AIDS patients; settings: multidrug resistant patient isolates
HIV-1NL4-3 = settings: Human immunodeficiency virus 1, MT2, 168 h; HIV-1NL4-3 (wild type), MT-2 cells, MTT assay, day 7
HIV-1UIC-P62 = experiment: PI sensitivity of compound 1-selected HIV-1UIC-P62 in MT-2 cells, MTT assay; settings: Human immunodeficiency virus 1, MT2, 168 h, HIV-1UIC-P62 (L10F, A28S, M46I, I50V, A71V, N88D), day 7
HIV-1APV-P30 = experiment: PI sensitivity of APV-selected HIV-1APV-P30 in MT-2 cells, MTT assay; settings: Human immunodeficiency virus 1, MT2, 168 h

CC(C)CN(C[C@@H](O)[C@H](Cc1ccccc1)NC(=O)O[C@H]1CCOC1)S(=O)(=O)c1ccc(N)cc1 [APV, Amprenavir]
IC50 (HIV-1Ba-L): 0.023 ± 0.009 µM
IC50 (HIV-1LAI; Human immunodeficiency virus 1, 168 h, PBMC (PHA-PBMC), p24 production): 0.017 ± 0.003 µM
IC50 (HIV-1LAI; Human immunodeficiency virus 1, MT2, 168 h, HT-2 (footnote: MT-2 cells), MTT assay): 0.041 ± 0.01 µM
IC50 (HIV-2EHO): 0.53 ± 0.03 µM
IC50 [1]: 0.025 µM
IC50 (HIV-1 clinical isolate 1): 270 nM
IC50 (HIV-1 clinical isolate 2): 280 nM
IC50 (HIV-1 clinical isolate 3): 260 nM
IC50 (HIV-1 clinical isolate 4): 310 nM
IC50 (HIV-1 clinical isolate 5): 670 nM
IC50 (HIV-1 clinical isolate 6): 160 nM
IC50 (HIV-1 clinical isolate 7): 490 nM
IC50 (HIV-1 clinical isolate 8): 150 nM
antiviral activity against patient isolates with multiple mutations compared with wild type HIV strains (in words) [2]: much less effective
IC50 (HIV-1NL4-3): 42 nM
IC50 (HIV-1UIC-P62): 830 nM
IC50 (HIV-1APV-P30): > 1000 nM

Reference: patent US20100009935A1, “RESISTANCE-REPELLENT […] INHIBITORS” (priority 2002, published 2010)
